Test results as given in patent US20220002806A1, “BIOMARKER” (ERBER AKTIENGESELLSCHAFT, priority 2018, published 2022).

How the values were obtained:
[1] = test system: miRNAs in serum; assay: Targeted qPCR-based miRNA analysis in blood serum of ZEN-exposed piglets; type: in vivo, pig
Text: Weaned female piglets (sow: Landrace×Large White, boar: Pietrain; 30+/−2 days old) were obtained from a local producer and individually tagged. Piglets were housed in slatted floor pens under controlled environmental conditions. After an acclimatization period of seven days, twenty-four female piglets were selected based on both body weight and vulva size, and allocated to one of four groups (6 animals/group). Piglets received either blank feed (negative control; Ctrl) or feed contaminated with ZEN in three increasing concentrations (ZEN low: 0.17 mg/kg diet; ZEN medium: 1.5 mg/kg diet; ZEN high: 4.6 mg/kg diet). During the 28-day experimental period, each treatment group was given free access to water and the assigned diet. The pigs were observed daily and weighed weekly.
Blood was collected weekly (d 0, 6, 14, 21 and 28) from individual animals by punctuation of the vena cava cranialis (Primavette® EDTA, Kabe Labortechnik GmbH, Nümbrecht-Elsenroth, Deutschland). After centrifugation (1500×g, 20 min), serum samples were stored at −80° C. for later analysis. Vulva length and width were measured at regular intervals with a caliper to determine the dietary ZEN effects. The vulva area was calculated as vulva length×vulva width, as previously reported (Jiang et al. 2011. Journal of animal science, 89, 3008-3015). Eight measurements were done per piglet over the experimental period.
miRNA extraction and qPCR analysis: Unlike the small-RNA-Seq analysis, all the animals from the feeding trial were used for investigations of the miRNA profile in the serum (6 per group; total of 24 animals). RNA was isolated from the serum samples using the miRNeasy Mini Kit (Qiagen, Germany). […] To calculate the cycle of quantification values (Cq-values), the second derivative method was used, as known by a person skilled in the art. Cq-values were normalized to the mean Cq-value in each sample (global mean normalization) by subtracting the individual miRNA Cq-value from the Cq average calculated for that sample. […]

[2] = target: estrogen receptors α (Homo sapiens, UniProt P03372); details: Zinedine et al. 2007; cited from earlier work
[3] = Zinedine et al. 2007; cited from earlier work
[4] = test system: prepuberal gilts; details: prepuberal gilts fed diets containing 1-5 ppm ZEN; Osweiler; cited from earlier work
[5] = target: T1, pregnane X receptor (Homo sapiens, UniProt O75469); details: in vitro; Ayed-Boussema et al. 2011; cited from earlier work
T1 sequence (O75469 1-434): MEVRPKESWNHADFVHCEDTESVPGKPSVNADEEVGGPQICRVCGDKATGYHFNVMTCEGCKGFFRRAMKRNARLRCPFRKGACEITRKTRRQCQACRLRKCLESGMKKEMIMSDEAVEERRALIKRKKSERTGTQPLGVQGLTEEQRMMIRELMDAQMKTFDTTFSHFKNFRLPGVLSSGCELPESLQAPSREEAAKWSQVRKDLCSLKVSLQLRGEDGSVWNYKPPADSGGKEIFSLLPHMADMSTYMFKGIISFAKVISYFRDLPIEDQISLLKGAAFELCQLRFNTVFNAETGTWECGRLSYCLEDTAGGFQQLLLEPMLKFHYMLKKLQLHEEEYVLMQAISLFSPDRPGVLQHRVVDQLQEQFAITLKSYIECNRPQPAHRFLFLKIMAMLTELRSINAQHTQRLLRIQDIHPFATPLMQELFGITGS

[6] = test system: miR-7; details: ovariectomized pigs; intraperitoneal injection of 112.5 mg ZEN per day; He et al. 2018; cited from earlier work
[7] = Ctrl vs ZEN high group (4.6 mg/kg diet), day 6 or day 28, unadjusted p-value ≤0.1

Sequence of estrogen receptors α (P03372 whole entry): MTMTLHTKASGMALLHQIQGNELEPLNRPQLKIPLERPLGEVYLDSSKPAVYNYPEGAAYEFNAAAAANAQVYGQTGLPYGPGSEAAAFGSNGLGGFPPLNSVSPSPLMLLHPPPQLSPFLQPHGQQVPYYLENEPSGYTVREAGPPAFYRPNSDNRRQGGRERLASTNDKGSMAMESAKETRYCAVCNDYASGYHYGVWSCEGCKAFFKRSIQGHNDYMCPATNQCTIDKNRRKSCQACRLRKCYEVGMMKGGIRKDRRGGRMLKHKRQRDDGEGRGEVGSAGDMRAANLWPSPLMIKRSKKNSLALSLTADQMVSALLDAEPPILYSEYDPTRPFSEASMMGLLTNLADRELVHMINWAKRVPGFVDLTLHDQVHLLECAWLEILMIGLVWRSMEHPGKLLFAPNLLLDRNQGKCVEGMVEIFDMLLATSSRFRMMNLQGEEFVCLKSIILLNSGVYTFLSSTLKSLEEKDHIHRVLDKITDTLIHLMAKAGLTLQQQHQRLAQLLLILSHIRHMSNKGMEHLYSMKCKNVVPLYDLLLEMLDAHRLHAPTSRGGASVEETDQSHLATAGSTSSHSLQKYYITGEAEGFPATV

## C[C@H]1CCCC(=O)CCC/C=C/c2cc(O)cc(O)c2C(=O)O1 [ZEN, (2E,11S)-15,17-dihydroxy-11-methyl-12-oxabicyclo[12.4.0]octadeca-1(18),2,14,16-tetraene-7,13-dione]
[1]; [7]
  serum levels of ssc-miR-1, ssc-miR-142-3p, ssc-miR-181c and ssc-miR-182: down-regulated
  serum levels of ssc-miR-140-3p, ssc-miR-455-3p, ssc-miR-455-5p and ssc-miR-542-3p: Up-regulated
[1]; Ctrl vs ZEN high group, log 2 fold changes ≤−0.8 or ≥0.8
  log 2-transformed fold changes of serum ssc-miR-129a, ssc-miR-135, ssc-miR-206, ssc-miR-432-5p, ssc-miR-493-3p and ssc-miR-503: considerable effect
[2]
  agonist action on estrogen receptor α: full
[3]
  acute toxicity: low
[4]
  mammary gland development: triggered
[5]
  action on pregnane X receptor: activates
[6]
  expression of miR-7 in pituitary tissue: increase
